In the NIST ThermoML archive (doi:10.1021/je0498053):

Tests used:
[1] = xn = mol fraction of the nth substance listed; conditions: 101.3 kPa, Liquid
[2] = 101.3 kPa, Liquid

CCCC(C)CO (stereo unspecified) [2-methyl-1-pentanol] + CCCCN
[1]
Conditions | mass density, 303.15 K [kg/m3] | mass density, 313.15 K [kg/m3] | mass density, 323.15 K [kg/m3] | viscosity, 303.15 K [mPa·s] | viscosity, 313.15 K [mPa·s] | viscosity, 323.15 K [mPa·s]
x2 = 0 | 816.8 | 809.5 | 801.5 | 4.55 | 3.18 | 2.25
x2 = 0.1 | 810.3 | 803 | 795.3 | 3.38 | 2.51 | 1.85
x2 = 0.2 | 804.8 | 797.4 | 789.6 | 2.67 | 2.06 | 1.57
x2 = 0.2999 | 798.2 | 790.6 | 782.6 | 2.1 | 1.65 | 1.32
x2 = 0.4 | 791 | 783.2 | 775 | 1.67 | 1.35 | 1.08
x2 = 0.5 | 783.6 | 775.7 | 767.2 | 1.37 | 1.11 | 0.91
x2 = 0.6 | 774.5 | 766.3 | 757.7 | 1.1 | 0.9 | 0.75
x2 = 0.6999 | 764.7 | 756.2 | 747.4 | 0.89 | 0.72 | 0.6
x2 = 0.8 | 753.9 | 745.2 | 736.1 | 0.69 | 0.59 | 0.5
x2 = 0.8999 | 742.9 | 734.5 | 724.3 | 0.54 | 0.48 | 0.42

CC(C)CC(C)O (stereo unspecified) [4-methyl-2-pentanol]
[2]
Conditions | mass density [kg/m3] | viscosity [mPa·s]
303.15 K | 799.3 | 3.23
313.15 K | 790.7 | 2.24
323.15 K | 782 | 1.55

CCCCN [1-butanamine] + CCCC(C)CO
[1], x1 = 1
Conditions | mass density [kg/m3] | viscosity [mPa·s]
303.15 K | 732.1 | 0.46
313.15 K | 722.9 | 0.4
323.15 K | 712.7 | 0.36

CCCC(O)CC (stereo unspecified) [3-hexanol]
[2]
Conditions | mass density [kg/m3] | viscosity [mPa·s]
303.15 K | 810.2 | 3.52
313.15 K | 801.7 | 2.34
323.15 K | 792.8 | 1.58

CCCCN [1-butanamine] + CCCCC(C)O
[1], x1 = 1
Conditions | mass density [kg/m3] | viscosity [mPa·s]
303.15 K | 732.1 | 0.46
313.15 K | 722.9 | 0.4
323.15 K | 712.7 | 0.36

CC(C)CC(C)O (stereo unspecified) [4-methyl-2-pentanol] + CCCCN
[1]
Conditions | mass density, 303.15 K [kg/m3] | mass density, 313.15 K [kg/m3] | mass density, 323.15 K [kg/m3] | viscosity, 303.15 K [mPa·s] | viscosity, 313.15 K [mPa·s] | viscosity, 323.15 K [mPa·s]
x2 = 0 | 799.3 | 790.7 | 782 | 3.23 | 2.24 | 1.55
x2 = 0.1 | 794.8 | 787 | 778.6 | 2.61 | 1.91 | 1.4
x2 = 0.2 | 790.7 | 782.9 | 774.5 | 2.06 | 1.57 | 1.21
x2 = 0.3 | 785.2 | 777.3 | 768.9 | 1.66 | 1.31 | 1.02
x2 = 0.3999 | 779.6 | 771.5 | 763 | 1.35 | 1.09 | 0.87
x2 = 0.5 | 772.8 | 764.6 | 755.9 | 1.09 | 0.91 | 0.75
x2 = 0.6 | 766 | 757.5 | 748.6 | 0.92 | 0.77 | 0.64
x2 = 0.6999 | 758 | 749.4 | 740.3 | 0.77 | 0.65 | 0.54
x2 = 0.7999 | 749.7 | 740.9 | 731.1 | 0.64 | 0.55 | 0.47
x2 = 0.9 | 740.8 | 731.7 | 721.7 | 0.56 | 0.48 | 0.41

CCCCN [1-butanamine] + CCCC(C)(C)O
[1], x1 = 1
Conditions | mass density [kg/m3] | viscosity [mPa·s]
303.15 K | 732.1 | 0.46
313.15 K | 722.9 | 0.4
323.15 K | 712.7 | 0.36

CCCC(C)CO (stereo unspecified) [2-methyl-1-pentanol]
[2]
Conditions | mass density [kg/m3] | viscosity [mPa·s]
303.15 K | 816.8 | 4.55
313.15 K | 809.5 | 3.18
323.15 K | 801.5 | 2.25

CCCCN [1-butanamine] + CC(C)CC(C)O
[1], x1 = 1
Conditions | mass density [kg/m3] | viscosity [mPa·s]
303.15 K | 732.1 | 0.46
313.15 K | 722.9 | 0.4
323.15 K | 712.7 | 0.36

CCCCN [1-butanamine] + CCCC(O)CC
[1], x1 = 1
Conditions | mass density [kg/m3] | viscosity [mPa·s]
303.15 K | 732.1 | 0.46
313.15 K | 722.9 | 0.4
323.15 K | 712.7 | 0.36

CCCCC(C)O (stereo unspecified) [2-hexanol] + CCCCN
[1]
Conditions | mass density, 303.15 K [kg/m3] | mass density, 313.15 K [kg/m3] | mass density, 323.15 K [kg/m3] | viscosity, 303.15 K [mPa·s] | viscosity, 313.15 K [mPa·s] | viscosity, 323.15 K [mPa·s]
x2 = 0 | 806.4 | 798.4 | 790.1 | 3.23 | 2.29 | 1.64
x2 = 0.1 | 802 | 794.2 | 786 | 2.67 | 1.97 | 1.45
x2 = 0.2 | 796.7 | 788.9 | 780.6 | 2.19 | 1.68 | 1.26
x2 = 0.3 | 791.5 | 783.7 | 775.3 | 1.78 | 1.4 | 1.1
x2 = 0.4 | 785 | 776.9 | 768.5 | 1.47 | 1.17 | 0.93
x2 = 0.5 | 777.7 | 769.4 | 760.8 | 1.2 | 0.98 | 0.79
x2 = 0.6 | 769.8 | 761.4 | 751.1 | 0.97 | 0.81 | 0.67
x2 = 0.6999 | 760.7 | 752.1 | 741.6 | 0.79 | 0.68 | 0.57
x2 = 0.8 | 751.3 | 742.7 | 732.4 | 0.65 | 0.56 | 0.47
x2 = 0.9 | 742.1 | 732.9 | 722.9 | 0.53 | 0.47 | 0.4

CCCCN [1-butanamine]
[2]
Conditions | mass density [kg/m3] | viscosity [mPa·s]
303.15 K | 732.1 | 0.46
313.15 K | 722.9 | 0.4
323.15 K | 712.7 | 0.36

CCCCC(C)O (stereo unspecified) [2-hexanol]
[2]
Conditions | mass density [kg/m3] | viscosity [mPa·s]
303.15 K | 806.4 | 3.23
313.15 K | 798.4 | 2.29
323.15 K | 790.1 | 1.64

CCCC(O)CC (stereo unspecified) [3-hexanol] + CCCCN
[1]
Conditions | mass density, 303.15 K [kg/m3] | mass density, 313.15 K [kg/m3] | mass density, 323.15 K [kg/m3] | viscosity, 303.15 K [mPa·s] | viscosity, 313.15 K [mPa·s] | viscosity, 323.15 K [mPa·s]
x2 = 0 | 810.2 | 801.7 | 792.8 | 3.52 | 2.34 | 1.58
x2 = 0.1 | 806.4 | 798.4 | 789.8 | 2.85 | 2.2 | 1.44
x2 = 0.2 | 801.4 | 793.5 | 785 | 2.26 | 1.79 | 1.24
x2 = 0.3 | 795.6 | 787.5 | 776.9 | 1.78 | 1.39 | 1.07
x2 = 0.3999 | 788.6 | 780.5 | 770 | 1.41 | 1.09 | 0.91
x2 = 0.5 | 780.4 | 772 | 763.2 | 1.13 | 0.89 | 0.76
x2 = 0.5999 | 772 | 763.5 | 754.5 | 0.92 | 0.78 | 0.65
x2 = 0.7 | 762.9 | 754.1 | 745.2 | 0.76 | 0.68 | 0.55
x2 = 0.7999 | 753 | 743.6 | 734.4 | 0.65 | 0.58 | 0.48
x2 = 0.9 | 742 | 732.7 | 723.2 | 0.54 | 0.46 | 0.4

CCCC(C)(C)O [2-methyl-2-pentanol] + CCCCN
[1]
Conditions | mass density, 303.15 K [kg/m3] | mass density, 313.15 K [kg/m3] | mass density, 323.15 K [kg/m3] | viscosity, 303.15 K [mPa·s] | viscosity, 313.15 K [mPa·s] | viscosity, 323.15 K [mPa·s]
x2 = 0 | 810.8 | 802.4 | 793.5 | 2.93 | 2.06 | 1.46
x2 = 0.1 | 806.7 | 798.2 | 789.2 | 2.62 | 1.88 | 1.34
x2 = 0.2 | 801.5 | 793.1 | 784 | 2.25 | 1.66 | 1.2
x2 = 0.3 | 795.7 | 787.2 | 778.2 | 1.86 | 1.41 | 1.04
x2 = 0.4 | 788.8 | 780.2 | 771.2 | 1.55 | 1.2 | 0.92
x2 = 0.4999 | 781.4 | 772.8 | 763.7 | 1.26 | 1 | 0.79
x2 = 0.5999 | 772.9 | 764.2 | 754.7 | 1.01 | 0.83 | 0.67
x2 = 0.7 | 763.8 | 755 | 745.1 | 0.82 | 0.69 | 0.57
x2 = 0.8 | 753.4 | 744.3 | 734.3 | 0.66 | 0.57 | 0.48
x2 = 0.9 | 742.4 | 733.3 | 723.6 | 0.54 | 0.47 | 0.41

CCCC(C)(C)O [2-methyl-2-pentanol]
[2]
Conditions | mass density [kg/m3] | viscosity [mPa·s]
303.15 K | 810.8 | 2.93
313.15 K | 802.4 | 2.06
323.15 K | 793.5 | 1.46
